# ChEMBL document CHEMBL3885881, “DrugMatrix”
# Species: Rattus norvegicus
# Assay: DrugMatrix - Regimen: Daily Repeat
# Format: toxicity, organism-based, Sprague-Dawley
# Design: regimen Daily Repeat, gender Male, age 6-8 weeks
# Details: in vivo, po, route oral GAVAGE, vehicle 100 % SALINE; for ABSOLUTE BASOPHIL / ABSOLUTE EOSINOPHIL / ABSOLUTE LYMPHOCYTE / ABSOLUTE MONOCYTE / ABSOLUTE SEGMENTED NEUTROPHIL / BASOPHIL / EOSINOPHIL / ERYTHROCYTE COUNT / HEMATOCRIT / HEMOGLOBIN / LEUKOCYTE COUNT / LYMPHOCYTE / MEAN CORPUSCULAR HEMOGLOBIN / MEAN CORPUSCULAR HEMOGLOBIN CONCENTRATION / MEAN CORPUSCULAR VOLUME / MONOCYTE / NEUTROPHIL / NUCLEATED RED BLOOD CELLS / PLATELET COUNT: tissue Blood; for ALANINE AMINOTRANSFERASE / ALBUMIN / ALKALINE PHOSPHATASE / ASPARTATE AMINOTRANSFERASE / BLOOD UREA NITROGEN / CARBON DIOXIDE / CHLORIDE / CHOLESTEROL / CREATINE PHOSPHOKINASE / CREATININE / GLUCOSE / LACTATE DEHYDROGENASE / LIPASE / PHOSPHORUS / POTASSIUM / SODIUM / TOTAL BILIRUBIN / TOTAL PROTEIN / URIC ACID: tissue Plasma
# [1] = 46 mg/kg, 120 h, dose level Low, time 5 day
# [2] = 360 mg/kg, 72 h, dose level High, time 3 day
# [3] = 360 mg/kg, 120 h, dose level High, time 5 day
compound,measurement,setting,value
COc1ccc2cc(CC(=O)O)ccc2c1,ABSOLUTE BASOPHIL,[1],0 CELLS/uL
same,ABSOLUTE EOSINOPHIL,[1],93.33 CELLS/uL
same,ABSOLUTE LYMPHOCYTE,[1],9837 CELLS/uL
same,ABSOLUTE MONOCYTE,[1],271.67 CELLS/uL
same,ABSOLUTE SEGMENTED NEUTROPHIL,[1],1398 CELLS/uL
same,BASOPHIL,[1],0%
same,EOSINOPHIL,[1],0.67%
same,ERYTHROCYTE COUNT,[1],5.65 x10E6/uL
same,HEMATOCRIT,[1],35.2%
same,HEMOGLOBIN,[1],13.83 G/DL
same,LEUKOCYTE COUNT,[1],11.6 x10E3/uL
same,LYMPHOCYTE,[1],86%
same,MEAN CORPUSCULAR HEMOGLOBIN,[1],24.5 pg
same,MEAN CORPUSCULAR HEMOGLOBIN CONCENTRATION,[1],39.33 G/DL
same,MEAN CORPUSCULAR VOLUME,[1],62.23 fL
same,MONOCYTE,[1],2.33%
same,NEUTROPHIL,[1],11%
same,NUCLEATED RED BLOOD CELLS,[1],0 /100WBC
same,PLATELET COUNT,[1],1138.33 x10E3/uL
same,ALANINE AMINOTRANSFERASE,[1],39.67 u/L
same,ALBUMIN,[1],3.93 G/DL
same,ALKALINE PHOSPHATASE,[1],339 u/L
same,ASPARTATE AMINOTRANSFERASE,[1],71 u/L
same,BLOOD UREA NITROGEN,[1],16.67 mg/dL
same,CARBON DIOXIDE,[1],37.33 mmol/L
same,CHLORIDE,[1],100 MEQ/L
same,CHOLESTEROL,[1],65.67 mg/dL
same,CREATINE PHOSPHOKINASE,[1],168 u/L
same,CREATININE,[1],0.25 mg/dL
same,GLUCOSE,[1],144.33 mg/dL
same,LACTATE DEHYDROGENASE,[1],125.67 u/L
same,LIPASE,[1],9.33 u/L
same,PHOSPHORUS,[1],9.93 mg/dL
same,POTASSIUM,[1],6.48 MEQ/L
same,SODIUM,[1],142.9 MEQ/L
same,TOTAL BILIRUBIN,[1],0.2 mg/dL
same,TOTAL PROTEIN,[1],5.57 G/DL
same,URIC ACID,[1],1.23 mg/dL
same,ABSOLUTE BASOPHIL,[2],0 CELLS/uL
same,ABSOLUTE EOSINOPHIL,[2],13.33 CELLS/uL
same,ABSOLUTE LYMPHOCYTE,[2],7596.67 CELLS/uL
same,ABSOLUTE MONOCYTE,[2],249.33 CELLS/uL
same,ABSOLUTE SEGMENTED NEUTROPHIL,[2],2774 CELLS/uL
same,BASOPHIL,[2],0%
same,EOSINOPHIL,[2],0.33%
same,ERYTHROCYTE COUNT,[2],3.71 x10E6/uL
same,HEMATOCRIT,[2],23.17%
same,HEMOGLOBIN,[2],9.43 G/DL
same,LEUKOCYTE COUNT,[2],10.63 x10E3/uL
same,LYMPHOCYTE,[2],66.67%
same,MEAN CORPUSCULAR HEMOGLOBIN,[2],25.93 pg
same,MEAN CORPUSCULAR HEMOGLOBIN CONCENTRATION,[2],41.23 G/DL
same,MEAN CORPUSCULAR VOLUME,[2],62.9 fL
same,MONOCYTE,[2],1.67%
same,NEUTROPHIL,[2],31.33%
same,NUCLEATED RED BLOOD CELLS,[2],1.67 /100WBC
same,PLATELET COUNT,[2],943 x10E3/uL
same,ALANINE AMINOTRANSFERASE,[2],45.33 u/L
same,ALBUMIN,[2],2.4 G/DL
same,ALKALINE PHOSPHATASE,[2],253 u/L
same,ASPARTATE AMINOTRANSFERASE,[2],212.33 u/L
same,BLOOD UREA NITROGEN,[2],22.33 mg/dL
same,CARBON DIOXIDE,[2],20.33 mmol/L
same,CHLORIDE,[2],99.67 MEQ/L
same,CHOLESTEROL,[2],66.67 mg/dL
same,CREATINE PHOSPHOKINASE,[2],1447.67 u/L
same,CREATININE,[2],0.17 mg/dL
same,GLUCOSE,[2],135.67 mg/dL
same,LACTATE DEHYDROGENASE,[2],735.67 u/L
same,LIPASE,[2],8.67 u/L
same,PHOSPHORUS,[2],17 mg/dL
same,POTASSIUM,[2],8 MEQ/L
same,SODIUM,[2],141 MEQ/L
same,TOTAL BILIRUBIN,[2],0.17 mg/dL
same,TOTAL PROTEIN,[2],5.13 G/DL
same,URIC ACID,[2],3.87 mg/dL
same,ABSOLUTE BASOPHIL,[3],0 CELLS/uL
same,ABSOLUTE EOSINOPHIL,[3],0 CELLS/uL
same,ABSOLUTE LYMPHOCYTE,[3],14145 CELLS/uL
same,ABSOLUTE MONOCYTE,[3],225 CELLS/uL
same,ABSOLUTE SEGMENTED NEUTROPHIL,[3],8130 CELLS/uL
same,BASOPHIL,[3],0%
same,EOSINOPHIL,[3],0%
same,ERYTHROCYTE COUNT,[3],4.19 x10E6/uL
same,HEMATOCRIT,[3],26.25%
same,HEMOGLOBIN,[3],10.55 G/DL
same,LEUKOCYTE COUNT,[3],22.5 x10E3/uL
same,LYMPHOCYTE,[3],62%
same,MEAN CORPUSCULAR HEMOGLOBIN,[3],25.2 pg
same,MEAN CORPUSCULAR HEMOGLOBIN CONCENTRATION,[3],40.2 G/DL
same,MEAN CORPUSCULAR VOLUME,[3],62.7 fL
same,MONOCYTE,[3],1%
same,NEUTROPHIL,[3],37%
same,NUCLEATED RED BLOOD CELLS,[3],0 /100WBC
same,PLATELET COUNT,[3],2123.5 x10E3/uL
same,ALANINE AMINOTRANSFERASE,[3],16.5 u/L
same,ALBUMIN,[3],2.7 G/DL
same,ALKALINE PHOSPHATASE,[3],153.5 u/L
same,ASPARTATE AMINOTRANSFERASE,[3],50 u/L
same,BLOOD UREA NITROGEN,[3],14 mg/dL
same,CARBON DIOXIDE,[3],28 mmol/L
same,CHLORIDE,[3],103 MEQ/L
same,CHOLESTEROL,[3],71.5 mg/dL
same,CREATINE PHOSPHOKINASE,[3],441 u/L
same,CREATININE,[3],0.14 mg/dL
same,GLUCOSE,[3],156.5 mg/dL
same,LACTATE DEHYDROGENASE,[3],371.5 u/L
same,LIPASE,[3],8 u/L
same,PHOSPHORUS,[3],10.3 mg/dL
same,POTASSIUM,[3],5.81 MEQ/L
same,SODIUM,[3],139.25 MEQ/L
same,TOTAL BILIRUBIN,[3],0.1 mg/dL
same,TOTAL PROTEIN,[3],4.85 G/DL
same,URIC ACID,[3],2.15 mg/dL
